Test results from PubChem BioAssay (NCI).
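48-hour exposure; five concentrations; linearly interpolated endpoints. GI50 = concentration required for 50% inhibition of growth. The concentration for full growth arrest is given as TGI.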

How the values were obtained:
Experiment in all cases: growth of human tumour cells (NCI), 48 h
HOP-62 NSCLC = tested on: HOP-62 NSCLC
K-562 leukemia = tested on: K-562 leukemia
RPMI-8226 leukemia = tested on: RPMI-8226 leukemia
RXF 393 renal = tested on: RXF 393 renal
SF-268 CNS = tested on: SF-268 CNS
SN12C renal = tested on: SN12C renal
TK-10 renal = tested on: TK-10 renal
UO-31 renal = tested on: UO-31 renal
HCT-15 colon = tested on: HCT-15 colon
SNB-75 CNS = tested on: SNB-75 CNS

| Compound | GI50 (HOP-62 NSCLC) | TGI (HOP-62 NSCLC) | GI50 (K-562 leukemia) | TGI (K-562 leukemia) | GI50 (RPMI-8226 leukemia) | TGI (RPMI-8226 leukemia) | GI50 (RXF 393 renal) | TGI (RXF 393 renal) | GI50 (SF-268 CNS) | TGI (SF-268 CNS) | GI50 (SN12C renal) | TGI (SN12C renal) | GI50 (TK-10 renal) | TGI (TK-10 renal) | GI50 (UO-31 renal) | TGI (UO-31 renal) | TGI (HCT-15 colon) | TGI (SNB-75 CNS) | GI50 (HCT-15 colon) | GI50 (SNB-75 CNS) |
| --- | --- | --- | --- | --- | --- | --- | --- | --- | --- | --- | --- | --- | --- | --- | --- | --- | --- | --- | --- | --- |
| N#CC1=C(N)NC(=S)NC12Nc1ccccc1N2 | 55.5 µM | > 100 µM | 28.1 µM | > 100 µM | 21.7 µM | > 100 µM | > 100 µM | > 100 µM | 18.6 µM | > 100 µM | 55.5 µM | > 100 µM | 46.4 µM | > 100 µM | 55.2 µM | > 100 µM |  |  |  |  |
| O=C1CC(O)(c2ccccc2)C(c2ccccc2)=C1c1ccccc1 (stereo not given) |  | > 100 µM |  | > 100 µM |  | 57.7 µM |  | > 100 µM |  | > 100 µM |  | > 100 µM |  | > 100 µM |  |  | > 100 µM | 96.7 µM |  |  |
| Cc1ccc(-c2nc(N3CCCNCC3)c3oc(-c4ccccc4)nc3n2)cc1 | 1.84 µM | 3.36 µM |  |  |  |  | 1.75 µM | 3.29 µM | 1.83 µM | 3.66 µM | 1.69 µM | 3.21 µM | 1.8 µM | 3.2 µM | 1.49 µM | 2.85 µM | 2.77 µM | 2.73 µM | 1.4 µM | 1.41 µM |
| NC1=NCCN1CC(=O)O | > 10000 µM | > 10000 µM |  | > 1000 µM | > 10000 µM | > 10000 µM | > 10000 µM | > 10000 µM | > 1000 µM | > 10000 µM | > 10000 µM | > 10000 µM | > 10000 µM | > 10000 µM | > 10000 µM | > 10000 µM | > 10000 µM |  | > 10000 µM |  |
| COC(=O)c1ccc(Cl)cc1NC(=O)C1CCCCC1 |  |  |  | > 100 µM |  | > 100 µM |  | > 100 µM |  | > 100 µM |  | > 100 µM |  | > 100 µM |  | > 100 µM | > 100 µM |  |  |  |
| Fc1cccc2c1cc1ccc3cccc4ccc2c1c34 |  | > 100 µM |  | > 100 µM |  |  |  | > 100 µM |  | > 100 µM |  | > 100 µM |  | > 100 µM |  | > 100 µM |  | > 100 µM |  |  |
| Cc1cn2c(/C=N/N=C(N)N)c(-c3cccnc3)nc2s1 | 10 µM | 24 µM |  |  | 8.91 µM | 58.9 µM | 15.2 µM | 59.1 µM | 12.9 µM | 35.8 µM |  |  | 6.85 µM | 21.3 µM | 6.1 µM | 21.4 µM | 18.1 µM |  | 4.39 µM |  |
| Cc1ncsc1-c1ccc(CNC(=O)[C@@H]2C[C@@H](O)CN2C(=O)[C@@H](NC(=O)C2(C#N)CC2)C(C)(C)C)cc1 | > 100 µM | > 100 µM |  |  | 62.4 µM | > 100 µM | > 100 µM | > 100 µM | > 100 µM | > 100 µM | > 100 µM | > 100 µM | > 100 µM | > 100 µM | > 100 µM | > 100 µM | > 100 µM | > 100 µM | > 100 µM | 33.7 µM |
| COc1cc2c(cc1OC)C(=O)Cc1ccc(OC)c(OC)c1CN(C)CC2 |  | > 100 µM |  | > 100 µM |  | > 100 µM |  |  |  | > 100 µM |  | > 100 µM |  | > 100 µM |  | > 100 µM | > 100 µM | > 100 µM |  |  |
